Measurements taken from patent US20080085888A1, “Therapeutic Combinations” (priority 2006, published 2008).

Tests used:
[1] = tested on: male Long Evans rats; test: Blockade of D-amphetamine-induced locomotor activity (LMA); format: in vivo, rat; conditions: for attenuation of amphetamine-induced locomotor activity: D-amphetamine 1 mg/kg s.c.
[2] = tested on: male, Long Evans rats; test: Spontaneous locomotor activity (sLMA), quetiapine-induced sedation
Source text: I. Attenuation of Quetiapine-Induced Sedation Using Spontaneous Locomotor Activity (sLMA)
Quetiapine is known to have sedative properties in humans. Quetiapine can induce sedation in rats and is manifested in various behaviors including reductions in spontaneous locomotor activity (sLMA). A test compound that increases sLMA in quetiapine treated rats may reduce quetiapine-induced sedation in human subjects.
The general procedure was to assess the effect of a particular drug on sLMA in rats by administering the drug after baseline assessment and then waiting an appropriate amount of time for the drug to achieve significant levels in plasma and brain.
Quetiapine was solubilized in saline plus some drops of 85% lactic acid and sonicated for around 20-30 minutes then adjusted with NaOH 1N for pH ˜4.8 to 5.0. The solution was stirred during the experiment to ensure uniform composition prior to administration. Quetiapine was administered by s.c. injection 15 minutes before testing. The dose volume was 4 ml/kg.
Compound b was dissolved in H2O and administered by oral gavage (p.o.) 30 minutes before testing with a dose volume of 1 ml/kg.
The effect of Compound b alone on sLMA was tested by administering doses of 0.006, 0.019, 0.06 or 0.19 mg/kg by oral gavage (p.o.) 30 minutes before testing. […]
Exploratory activity was monitored and quantified using open field activity systems (hardware and software) purchased from Med Associates. […]
Statistical analysis was made of total distance traveled over the 5 minutes test period for a spontaneous locomotor activity using one-way analysis ANOVA and Turkey's multiple-range analysis. All values are expressed as mean and SD.

[3] = tested on: CF-1 male mice; test: Haloperidol-induced catalepsy model of EPS; format: in vivo, mouse
Source text: III. Blockade of Haloperidol-Induced Catalepsy
Haloperidol-induced catalepsy model of EPS: Haloperidol is a typical or first-generation antipsychotic drug that while effective is prone to produce extrapyramidal symptoms (EPS) in humans. Other antipsychotic drugs (e.g. chlorpromazine, risperidone) can also cause EPS in patients and this side effect can limit the use of these drugs. In rodents, drug-induced catalepsy (a trance-like state of waxy immobility) can be used to assess the risk of EPS for antipsychotic drugs. Haloperidol reliably induces catalepsy in mice and rats. Test compounds that reduce catalepsy in haloperidol-treated rats may reduce antipsychotic drug-induced EPS.
Haloperidol-induced catalepsy in mice model: CF-1 male mice (Charles River, 20-30 gm, 10 mice per dose) were dosed orally with compound (b) at 0.06, 0.19, 0.6 and 1.9 mg/kg or vehicle (distilled water). Thirty minutes later, all mice were dosed with 2 mg/kg of haloperidol s.c. At 60 minutes and 4 hours after haloperidol dosing, the experimenter gently placed both forepaws of each animal on a metal bar (4 mm in diameter) that was fixed horizontally 5 cm above the test floor. The length of time (in seconds) during which each mouse maintained the initial forepaw bar position was recorded (cataleptic pose). Maximum cut-off time was 60 seconds. The same experimental design was performed on two consecutive days, and results were combined from both experiments. Therefore, the final results are from groups of 20 mice.

[4] = tested on: rodent; conditions: cited from earlier work; for effect on haloperidol-induced catalepsy: Levin and Lippiello 1999

With `C[C@H](N)Cc1ccccc1` [Amphetamine, D-amphetamine] the “locomotor activity in habituated rats” value ([1]; D-amphetamine 1 mg/kg s.c. alone, p<0.001) was “significantly increased”.

With `CN[C@@H](C)C/C=C/c1cncc(OC(C)C)c1.O=C(O)c1ccc(O)cc1` [Compound b, (2S)-(4E)-N-Methyl-5-[3-(5-isopropoxypyridin)yl]-4-penten-2-amine p-hydroxybenzoate] the “reduction in sLMA compared to vehicle-vehicle controls” value ([2]; Compound b 0.19 mg/kg p.o. administered before quetiapine 40 mg/kg s.c. (combination)) was “did not result in a significant reduction in sLMA”, the “suppression of sLMA” value ([2]; Compound b 0.19 mg/kg p.o. and then vehicle) was “no significant suppression of sLMA” and the “effect on sLMA (total distance traveled)” value ([2]; Compound b alone, 0.006, 0.019, 0.06 and 0.19 mg/kg p.o., 30 min before testing, 5 min test) was “no significant effect”. For the same molecule, the “reduction of haloperidol induced catalepsy” value ([3]; 60 minute time point, Compound b 0.06, 0.19, 0.6 and 1.9 mg/kg p.o. 30 min before haloperidol 2 mg/kg s.c., P<0.05) was “reduced haloperidol induced catalepsy”, the “reduction of haloperidol induced catalepsy” value ([3]; 4 hour time point, 1.9 mg/kg p.o. (only this dose) before haloperidol 2 mg/kg s.c.) was “significant reduction” and the “reduction of D-amphetamine-induced locomotor activity” value ([1]; Compound b alone 0.19 mg/kg p.o.) was “did not significantly reduce”. For the same molecule, the “reduction of D-amphetamine-induced locomotor activity” value ([1]; combination: Compound b 0.19 mg/kg p.o. with quetiapine 10 mg/kg s.c., vs D-amphetamine alone group) was “did significantly reduce” and the “reduction of D-amphetamine-induced locomotor activity” value ([1]; combination: Compound b 0.019 or 0.06 mg/kg p.o. with quetiapine 10 mg/kg s.c.) was “did not significantly reduce”.

With `O=C(CCCN1CCC(O)(c2ccc(Cl)cc2)CC1)c1ccc(F)cc1` [Haloperidol, haloperidol] the “mice with catalepsy of up to 60 seconds” value ([3]; haloperidol 2 mg/kg s.c. alone) was 60-90 % of mice.

In the case of `CNCC/C=C/c1cccnc1` [RJR 2403], the “effect on haloperidol-induced catalepsy” value [4] is given as “did not significantly worsen haloperidol-induced catalepsy, they did not reduce it either”.

For `CN1CCCC1c1cccnc1` (centres unmarked) [nicotine], the “effect on haloperidol-induced catalepsy” value [4] is listed as “did not significantly worsen haloperidol-induced catalepsy, they did not reduce it either” and the “effect on catalepsy in rodent” value ([4]; Sanberg et al. 1993) is listed as “can worsen catalepsy”.

For `OCCOCCN1CCN(C2=Nc3ccccc3Sc3ccccc32)CC1` [quetiapine, 11-[4-[2-(2-hydroxyethoxy)ethyl]-1-piperazinyl]dibenzo[b,f][1,4]thiazepine], the “attenuation of amphetamine-induced locomotor activity” value (from here on “attenuation”) ([1]; quetiapine alone 10 mg/kg s.c.) was “did not significantly attenuate”, the “attenuation” value ([1]; quetiapine alone 10 mg/kg s.c., listed as Quetiapine) was “not” and the “attenuation” value ([1]; quetiapine alone 20, 40 and 60 mg/kg s.c.) was “significantly attenuated”. For the same molecule, the “threshold for significantly reducing D-amphetamine-induced locomotor activity” value ([1]; quetiapine alone s.c.) was 20 mg/kg.
